Data: patent US20060063209A1, “Engineered antibody fragment that irreversibly binds an antigen” (THE REGENTS OF THE UNIVERSITY OF CALIFORNIA, priority 2004, published 2006)

Experiments:
[1] = Whole-body clearance of indium-111 labeled electrophilic benzyl-EDTA derivatives; format: in vivo; details: indium-111 labeled chelate, BALB/c mice; for apparent half-life, whole-body clearance: after tail-vein injection
Procedure: FIG. 4 Whole-body clearance of indium-^111I labeled electrophilic derivatives of benzyl-EDTA from BALB/c mice after tail-vein injection. Here the objective was to find an electrophilic chelate that clears from the animal quickly when not captured by an engineered CHA255.
As reactive ligands, a small set of chelates bearing electrophilic para substituents (FIG. 3) that could react with cysteine were prepared. To be most useful, the electrophilic ligands should be stable in biological media so that they not react prematurely with common biological nucleophiles such as the cysteine on glutathione or in albumin (Geigy Scientific Tables Vol 3, C. Lentner, ed., Ciba-Geigy Ltd., Basel, Switz (1984)). The whole-body clearance of the radiolabeled chelates from mice was studied (FIG. 4 and Chmura, A. J., et al., J. Controlled Release 78:249-258 (2002)) to identify the electrophilic chelates that are unreactive in plasma in vitro, and which also quantitatively clear from live animals.

[2] = system: Fab S95C; assay: Covalent attachment of 111In-chelates to engineered Fab S95C (SDS-PAGE); format: binding; details: physiological pH and temperature, raw culture medium with 10% fetal calf serum
Procedure: FIG. 5 Conjugation of electrophilic ^111In-benzyl-EDTA derivatives with engineered Fab S95C. Phosphorimage of 10-20% SDS-PAGE gel of samples of complete culture media incubated with ^111In-labeled (A) CABE, (B) CpABE, (C) AABE, and (D) ABE. The radiolabeled light chains migrate near 25 Kd.
To investigate whether either the S95C or the N96C Fab would bind irreversibly to its target, ^111In-labeled chelates bearing electrophilic groups were incubated at physiological pH and temperature with raw tissue culture medium from the cells expressing these recombinant proteins. The culture medium contained 10% fetal calf serum, representative of typical biological media.
The samples were analyzed by denaturing gel electrophoresis (SDS-PAGE). Separation under reducing and denaturing conditions on SDS-PAGE separates the light chain from the heavy chain of each Fab, functionally destroying the antibody-binding pocket. Chelates bound to the Fab but not covalently linked will dissociate because the antibody-binding pocket is no longer folded. […] However, a chelate that not only bound to a Fab but also covalently linked will be attached to the Fab light chain and migrate with it on SDS-PAGE.

[3] = system: G54C mutant of 2D12.5; assay: Permanent binding to G54C, competitive 90Y-AABD attachment, SDS-PAGE; details: 37° C.
Procedure: FIG. 17 a) Scheme describing the permanent binding pair. b) Infinite binding is observed not only for ^90Y-AABD but also for ^111In-AABD, assayed by SDS-PAGE under denaturing conditions where only permanently bound complexes remain attached to the antibody.
FIG. 18 The G54C mutant was preincubated in triplicate with 10 μM AABD complexes of Y^3+, In^3+ or Cu^2+, a negative control N-(1-carbamoyl-2-(4-nitrophenyl)-ethyl)-acrylamide or N-(4-carboxymethylphenyl)-acrylamide, or just buffer, for 5 min, 20 min or 120 min at 37° C., pH 7.5. At the stated times ^90Y-AABD (1 μM) was added to each solution to compete for free G54C. Permanent binding was assayed by measuring band intensities after SDS-PAGE. a) Phosphorimage of gel. The fainter the bands, the greater the permanent binding by the unlabeled ligand. b) Crystal structures of Y-DOTA, In-DOTA-mono(p aminoanilide) (some atoms removed for clarity) and Cu-DOTA.
FIG. 19 a) Metal-AABD (10 μM) complexes were preincubated separately with aliquots of G54C for 5 min, followed by addition of 1 μM ^90Y-AABD, which competes for free G54C, and SDS-PAGE analysis. b) From quantitative phosphorimaging, the highest-affinity AABD complexes form permanent bonds with G54C with higher yields than more 3+weakly binding rare earth-AABD complexes whose ionic radii are slightly smaller (Lu Yb^3+) or larger (Ce^3+, La^3+) than ideal.
We were curious to see if an even weaker binder such as a copper chelate (KD˜10^−4 M for Cu-NBD) would bind irreversibly under ordinary conditions. We tested this by comparing the permanent binding of Y^3+-, In^3+-, and Cu^2+-AABD, using competitive ^90Y-AABD attachment as an indicator (FIG. 18). […] Weaker binding In-AABD blocks >50% of the sites after 5 min preincubation, and even more at later times. Very weakly binding Cu-AABD initially occupies only about 10% of the G54C sites under these conditions, but it has permanently attached to G54C in good yield after 2 hr, blocking>70% of the sites.

[4] = system: antibody 2D12.5; assay: Competitive immunoassay (ELISA) of metal chelate binding; parameters: species or system mouse
Excerpt: FIG. 9 Relative binding of metal-(S)NBD complexes to antibody 2D12.5. A representative set of competitive binding curves obtained from ELISA experiments. Distance between midpoints is related to difference between dissociation constants. Error bars (representing the standard error of the mean) are shown but are generally smaller than the data points.
FIG. 14 Binding of yttrium chelates with different stereochemistry to antibody 2D12.5, showing that the antibody binds a chelate with the side chain in the R configuration approximately one order of magnitude less well than the S configuration. […] Error bars are smaller than the data symbols. Data were generated by competitive ELISA.
A competitive immunoassay to measure the binding constants of various metal-(S)NBD complexes relative to the original Y^3+ complex (FIG. 9) was developed to assess the metal selectivity of antibody 2D12.5. Briefly, 2D12.5 was incubated at 37° C. in the presence of immobilized HSA-21T-Y-(S)BAD and a soluble metal-(S)NBD competitor (Y-(S)BAD was linked to human serum albumin via 2-iminothiolane). The metal-(S)NBD concentration was varied from μM to pM in order to determine the relative binding affinity of 2D12.5 for each metal chelate in comparison to Y-(S)NBD. […] Other antibodies that bind metal chelates do so with a strong preference for one or possibly two metals (Love, R. et al., Biochemistry 32, 10950-10959 (1993), and Khosraviani, M., et al., (2000) Bioconjugate Chem., 11, 267-277). For example, the (S)NBD chelate of group IIIB ion Sc(III) binds to the antibody with a much lower affinity (<1%) than the strongest binding rare earth complexes, perhaps because Sc(III) has a much smaller ionic radius (Meehan, P. R., et al., Coord. Chem. Rev., 181, 121145, and Shannon, R. D. (1976) Acta Crystallogr., Sect. A: Found. Crystallogr., A32, 751-767).

[5] = biological target: avidin (Gallus gallus, UniProt P02701); details: cited from earlier work
[6] = system: HLA-DR10; assay: Gel shift assay of permanent attachment of sL1 mutants (western blot); format: binding; details: for cross-linking of linker-activated T97C to HLA-DR10: sL1 mutant T97C activated with electrophile, 19 h incubation, western blot
Excerpt: FIG. 25 Gel shift assay of permanent attachment of sL1 to HLA-DR: western blot stained with anti-HLA-DR10β (antibody HL-40). The glycosylated β subunit of HLA-DR10 runs approximately 28-34 kDa, so the cross-linked sL1-HLA-DR10β should run at 57-63 kDa (bands in lanes 5 and 10). Lanes 2-6 are cysteine mutant F96C and lanes 7-11 are cysteine mutant T97C. Lanes 2 and 7 are sL1 mutant only; lanes 3 and 8 are sL1 mutant and HLA-DR10 target; lanes 4 and 9 are sL1 mutant and electrophile (no target); lanes 5 and 10 are the complete experiment: sL1 mutant, electrophile, and target; and lanes 6 and 11 are sL1 mutant with electrophile and recombinant human serum albumin as a negative control. Lnkr: nitrophenyl ester; Trgt: HLA-DR10.
Irreversible Binding Studies of sL1 and HLA-DR10 The general strategy for the development of an irreversibly binding Lym1 sFv (sL1) is outlined in FIG. 24. Lym-1 scFv (sL1) is genetically altered to incorporate a cysteine residue in various positions of one of the six CDRs. This free sulfhydryl is then activated with an alkylbromoacetate consisting of varied R-groups (see FIG. 34) which modify the reactivity of the covalent bond formation. The activated sL1 is then incubated with a crude mixture containing the target protein. The mixture is loaded on a SDS-PAGE gel and then investigated for the appearance of new, high molecular weight bands corresponding to the conjugation of the target protein and the sL1.
The general experimental protocol for the gel shift assays in the figures is as follows. An aliquot of concentrated P. pastoris expression media containing an sL1 mutant (8-10 μL, positive by anti-V5 stain for sL1 and dialyzed into 10 mM HEPES buffer pH 8.0), is incubated for 15 min with a chosen bromoacetate ester (e.g., nitrophenyl bromoacetate) at a concentration of 10 mM, to alkylate the Cys sidechain. […] Reducing SAB is added to each sample, followed by SDS-PAGE and western blotting.

[7] = system: HLADR; assay: Monovalent binding of Lym-1 single-chain antibody
Excerpt: This is a combination of (1) the behavior characteristic of a weak binder, which should permeate a tumor, and (2) the behavior of an extremely strong binder, which should ultimately lock onto its targets throughout the tumor. This combination of good penetration and permanent binding is a unique and revolutionary aspect of this technology.

avidin, sequence (P02701 25-152): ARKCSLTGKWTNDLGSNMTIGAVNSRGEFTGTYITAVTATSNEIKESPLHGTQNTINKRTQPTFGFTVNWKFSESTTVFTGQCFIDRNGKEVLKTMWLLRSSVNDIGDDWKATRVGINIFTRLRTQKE

Q: With `O=C(O)CN(CC(=O)O)CC(Cc1ccc(NC(=O)CBr)cc1)N(CC(=O)O)CC(=O)O` (centres unmarked) [BABE, bromoacetamidobenzyl-EDTA] as the molecule, how does the “whole-body clearance” value [1] read?
A: The value was “remain in the animals”.

Q: And the “apparent half-life, whole-body clearance” value [1]?
A: Its value is 41 h.

Q: With `O=C(O)CN(CC(=O)O)CC(Cc1ccc(NC(=O)CCl)cc1)N(CC(=O)O)CC(=O)O` (centres unmarked) [CABE, chloroacetamidobenzyl-EDTA] as the molecule, how does the “whole-body clearance” value [1] read?
A: The value was “remain in the animals”.

Q: What about the “apparent half-life, whole-body clearance” value [1] of the same molecule?
A: The value was 9 h.

Q: And the “covalent attachment to Fab S95C light chain” value [2]?
A: The value was “reacted equally well”.

Q: Which results are given for `C=CC(=O)Nc1ccc(C[C@H]2CN(CC(=O)O)CCN(CC(=O)O)CCN(CC(=O)O)CCN2CC(=O)O)cc1` [Cu-AABD, (S)-2-(4-acrylamidobenzyl)-DOTA]?
A: G54C sites initially occupied ([3]; 10 μM complex, pH 7.5): about 10%; G54C sites blocked from 90Y-AABD ([3]; 10 μM complex, after 2 hr, pH 7.5): > 70%

Q: For `O=C(O)CN1CCN(CC(=O)O)CCN(CC(=O)O)[C@@H](Cc2ccc([N+](=O)[O-])cc2)CN(CC(=O)O)CC1` [Gd-(S)NBD, (S)-2-(4-nitrobenzyl)-DOTA], which “relative binding to 2D12.5” value ([4]; competitive ELISA) is on record?
A: Its value is “bind more tightly than the original Y^3+ complex”.

Q: With `C=CC(=O)Nc1ccc(C[C@H]2CN(CC(=O)O)CCN(CC(=O)O)CCN(CC(=O)O)CCN2CC(=O)O)cc1` [In-AABD, (S)-2-(4-acrylamidobenzyl)-DOTA] as the molecule, how does the “G54C sites blocked from 90Y-AABD” value ([3]; 10 μM complex, preincubation 5 min, pH 7.5) read?
A: The value was greater than 50%.

Q: And the “permanent binding to G54C” value ([3]; pH 7.5, SDS-PAGE, listed as 111In-AABD)?
A: Its value is “binds permanently”.

Q: With `O=C(O)CN1CCN(CC(=O)O)CCN(CC(=O)O)[C@@H](Cc2ccc([N+](=O)[O-])cc2)CN(CC(=O)O)CC1` [La-(S)NBD, (S)-2-(4-nitrobenzyl)-DOTA] as the molecule, how does the “ΔΔG relative to the Y-(S)NBD complex” value ([4]; competitive ELISA) read?
A: The value was 0.693 kcal/mol.

Q: Which Kd ([4]; 37° C., competitive immunoassay) does the source give for `O=C(O)CN1CCN(CC(=O)O)CCN(CC(=O)O)[C@@H](Cc2ccc([N+](=O)[O-])cc2)CN(CC(=O)O)CC1` [Y-(S)NBD, (S)-2-(4-nitrobenzyl)-DOTA] here?
A: Its Kd is 10 nM.

Q: Which “relative binding to 2D12.5” value ([4]; competitive ELISA) does the source give for `O=C(O)CN1CCN(CC(=O)O)CCN(CC(=O)O)CCN(CC(=O)O)CC1` [Y-DOTA, 1,4,7,10-tetraazacyclododecane-N,N′,N″,N′″-tetraacetic acid] here?
A: Its value is “lower than Y-(S)NBD but higher than Y-(R)NBD”.

Q: What about the “relative binding to 2D12.5” value ([4]; competitive ELISA, listed as Yttrium-DOTA) of the same molecule?
A: The value was “approximately in the middle”.

Q: For `O=C(O)CCCC[C@@H]1SC[C@@H]2NC(=O)N[C@@H]21` [biotin], which KA [5] is on record?
A: Its KA is roughly 4e+09 M⁻¹.

Q: With `O=C(CBr)Oc1ccccc1` [phenylbromoacete] as the molecule, how does the “cross-linking of linker-activated T97C to HLA-DR10” value [6] read?
A: The value was “mild reactivity”.

Q: Which “covalent attachment to Fab S95C light chain” value [2] does the source give for “(S)-1-p chloropropionamidobenzyl-EDTA [CpABE]” here?
A: Its value is “not”.

Q: For nitrophenylbromoacetate, which “cross-linking of linker-activated T97C to HLA-DR10” value [6] is on record?
A: The value was “strong cross-linking”.

B1: sL1: Lym-1 single-chain antibody, no cysteine mutation (protein)
scFv: RSQVQLKESGPGLVAPSQSLSITCTISGFSLTSYGVHWVRQPPGKGLEWLVVIWSDGSTTYNSALKSRLSISKDNSKSQVFLKMNSLQTDDTAIYYCASHYGSTLAFASWGHGTLVTVSAGGGGSGGGGSGGGGSDIQMTQSPASLSASVGETVTIICRASVNIYSYLAWYQQKQGKSPQLLVYNAKILAEGVPSRFSGSGSGTQFSLKINSLQPEDFGSYYCQHHYGTFTFGSGTKLEIKSRGPFEGKPIPNPLLGLDSTRTGHHHHHH
Q: Which results are given for B1?
A: permanent attachment (cross-linking) to HLA-DR10β ([6]; sL1 construct treated with nitrophenyl ester, 37° C., 4 hr, western blot with HL-40): no reactive band appeared; monovalent affinity [7]: too weak to measure confidently, but probably in the micromolar range
